Measured values reported in patent US20200316213A1, “MACROMOLECULAR PLATFORM FOR TARGETING SCAVENGER RECEPTOR A1” (THE UNITED STATES OF AMERICA, AS REPRESENTED BY THE …, priority 2017, published 2020).

How the values were obtained:
[1] = in vivo; settings: male, Sprague-Dawley, rat, iv, 10 mg/kg
[2] = male, Sprague-Dawley, rat, in vivo, iv, 10 mg/kg
[3] = target: T1, scavenger receptor A1 (Mus musculus, UniProt P30204); test: Competitive inhibition of polymer-488 cell uptake by poly I / poly C in Raw 264.7 macrophages; assay type: cell-based; settings: for inhibition of scavenger receptor interaction of polymer-488 (fluorescence): various concentrations of polymer-488 with inhibitor, Raw 264.7 macrophages (FIG. 3); for inhibition of polymer-488 fluorescence: various inhibitor concentrations, polymer-488 concentration constant, 37° C. 3 hours (FIG. 4)
T1 construct: endogenous in cells; host or cells: Raw 264.7 macrophages
T1 sequence (P30204 1-458): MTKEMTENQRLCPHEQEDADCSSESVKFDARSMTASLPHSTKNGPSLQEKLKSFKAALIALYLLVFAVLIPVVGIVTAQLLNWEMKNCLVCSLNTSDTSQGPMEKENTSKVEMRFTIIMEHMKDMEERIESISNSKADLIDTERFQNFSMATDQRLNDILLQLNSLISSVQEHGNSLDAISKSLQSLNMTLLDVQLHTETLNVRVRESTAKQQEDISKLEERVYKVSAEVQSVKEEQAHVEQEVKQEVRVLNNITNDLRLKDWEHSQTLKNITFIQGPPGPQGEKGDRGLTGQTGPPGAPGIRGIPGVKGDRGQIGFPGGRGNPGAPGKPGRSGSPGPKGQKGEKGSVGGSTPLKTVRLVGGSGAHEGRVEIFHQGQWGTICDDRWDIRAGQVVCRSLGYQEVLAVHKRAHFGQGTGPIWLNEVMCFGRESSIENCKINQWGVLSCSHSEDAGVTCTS
Method: The fluorescently labelled poly(L-lysine succinylated) was also tested for cell uptake in a macrophage cell line Raw 264.7 in the presence of competitive inhibitors and relevant controls. […] At higher concentrations of polymer-488, fluorescence is seen due to competing off the poly I.
In a follow up study, cells were treated with various concentrations of either poly I or poly C while polymer-488 concentration remained constant. In this study, Raw 264.7 cells were incubated overnight at 400,000 cells/mL. The cells were treated with various concentrations of polymer-488 and either 200 μg/mL poly I, 200 μg/mL poly C, or no inhibitor. The cells were incubated at 37° C. for 3 hours, washed 3 times with media, and fluorescence measured.

Tmax [1] [h] | Cmax ([1]; Cmax) [ng/g] | Tlast [2] [h] | inhibition of polymer-488 fluorescence [3] | Compound | inhibition of scavenger receptor interaction of polymer-488 (fluorescence) [3]
4 | 86.7 | 96 | – | Nc1nc(=O)n([C@@H]2CS[C@H](CO)O2)cc1F [Emtricitabine, emtricitabine] | –
– | – | – | virtually no inhibition of fluorescence | polycytidylic acid [poly C] | not with poly C
– | – | – | dose-dependent inhibition | polyinosinic acid [poly I] | inhibition of scavenger receptor interaction
